In patent EP2792360A1, “(1aR,12bS)-8-cyclohexyl-11-fluoro-N-((1-methylcyclopropyl)sulfonyl)-1a-((3-methyl-3,8-diazabicyclo[3.2.1]oct-8-yl)carbonyl)-1,1a,2,2b-tetrahydrocyclopropa[d]indolo[2,1-a][2]benzazepine-5-carboxamide for use in treating HCV” (IP Gesellschaft für Management mbH, priority 2013, dated 2014):
“Also recorded” adds a separate entry of the source. Structures can show the parent of a compound that is named as a salt. Blank lines part the entries; values can stand above or below the compound they belong to.

Columns and labels:
[1] = Salt selection screens of Formula V free base (organic solvents, aqueous, concentrated acids; XRPD); assay type: physicochemical; conditions: for XRPD post 1 day maturation / XRPD post 4 days maturation: HCl salt screen, HCl 1.1 equivalents
Protocol: Example 8: Salt Selection: Preparation of the hydrochloride salt was performed in the 20 solvents used for the solubility screen in order to select the optimal solvents for the salt screen. Formula V free base (ca. 10 mg) was suspended in the selected solvents (50 volumes; 500 µl) with stirring at 40°C. HCl (1.1 equivalents; […] in THF) was added, and the temperature was maintained for 30 minutes. […] The experiments were left cycling for further three days. […] Table 2. Results of HCl salt screen from 20 different solvents
Formula V free base (ca. 30 mg) was suspended in selected solvents (THF, nitromethane, acetonitrile and MEK; 50 volumes, 1.5 mL) at 50°C with stirring. The corresponding acid (1 equivalent) was added and the samples were stirred for 30 minutes, prior to ramping at 1 °C -min_1 to 25°C. The samples were placed in a shaker and subjected to heating/cooling cycles, between room temperature and 50°C, with four hours at each condition. Table 3. Input materials used for the salt screen
Further solvent (25 volumes) was added, and the suspensions were allowed to cycle for four more days. […] The samples were stored in a shaker and subjected to heating/cooling cycles, between room temperature and 50°C, with four hours at each condition for one week. […] Water (10% for MeCN, and 5% for THF, MEK and nitromethane, based on ca. 1.5 mL solvent) was added and the samples were cycled for a further 5 days. […] Table 4. XRPD results from the salt screen in acetonitrile.
An aqueous screen was performed. […] Table 11. Aqueous salt screen
The preparation of salts was conducted by dissolution in concentrated aqueous inorganic acids followed by precipitation with THF. Two procedures were performed, on 10 mg or 50 mg scale, investigating the effect of the order of addition of THF on the product produced.
Procedure A: Formula V free base (ca. 10 mg) was dissolved in the corresponding concentrated acid (50 µl) with stirring at room temperature and was added dropwise over THF (500 µl). Samples using HBr and HCl yielded solids and were shaken for 10 minutes and the solid was vacuum filtered, and dried under suction. H3PO4 yielded a solution that was subjected to heating/cooling cycles between room temperature and 50°C, four hours under each condition for 7 days. Procedure B: Formula V free base (ca. 50 mg) was dissolved in the corresponding concentrated acids (250 µl) with stirring at room temperature. THF (2.5 mL) was added dropwise to the solutions, and precipitation started. The samples were shaken for 30 minutes before being placed at 2-8°C for ca. 16 hours. HBr and HCl produced solids, which were vacuum filtered, washed with THF, dried under suction and under vacuum at 40°C for 16 hours. Table 13. Results from the salt screen from concentrated aqueous acids

[2] = Solid form stability of forms of compound of formula (IV) (Temperature / Humidity Controlled XRPD, storage, suspension); assay type: physicochemical
Protocol: The term"XRPD" denotes the analytical method of X-Ray Powder Diffraction. XRPD patterns were recorded at ambient conditions in transmission geometry with a STOE STADI P diffractometer (Cu K alpha radiation source, primary monochromator, position sensitive detector, angular range 3° to 42° 2Theta, approximately 60 minutes total measurement time). The repeatability of the angular values is in the range of 2Theta ±0.2°. The term "approximately" given in combination with an angular value denotes the repeatability which is in the range of 2Theta ±0.2°. The samples were prepared and analyzed without further processing (e.g. grinding or sieving) of the substance. The relative XRPD peak intensity is dependent upon many factors such as structure factor, temperature factor, crystallinity, polarization factor, multiplicity, and Lorentz factor. Relative intensities may vary considerably from one measurement to another due to preferred orientation effects. Humidity Controlled XRPD analyses were performed in reflection geometry with a Siemens D5000 Diffractometer (Cu radiation source, Ni K beta filter, Scintillation detector, angular range 3° to 42° 2Theta, approximately 180 minutes total measurement time per humidity level). The diffractometer is equipped with an MRI (Materials Research Instruments) humidity chamber. The humidity within the chamber is adjusted with an ANSYCO humidity controller (SYCOS H-HOT). For single crystal structure analysis a single crystal sample was mounted in a nylon loop on a goniometer and measured at ambient conditions. Alternatively, the crystal was cooled in a nitrogen stream during measurement. Data were collected on a GEMINI R Ultra diffractometer from Oxford Diffraction. Cu-radiation of 1.54 A wavelength was used for data collection. Data was processed with the Oxford Diffraction CRYSALIS software. The crystal structure was solved and refined with standard crystallographic software. In this case the program ShelXTL from Bruker AXS (Karlsruhe) was used. The abbreviation "FWHM" denotes the full width at half maximum, which is a width of a peak (e.g. appearing in a spectrum, particularly in an XRPD pattern) at its half height. The term "sharp Bragg diffraction peak" in connection with X-ray diffraction patterns denotes a peak which is observed if Bragg' s law of diffraction is fulfilled. Generally, the FWHM of a sharp Bragg diffraction peak is less than 0.5° 2-theta. The term "amorphous halo" in connection with X-ray diffraction patterns denotes an approximately bell- shaped diffraction maximum in the X-ray powder diffraction pattern of an amorphous material. The FWHM of an amorphous halo is on principle larger than the FWHM of the peak of crystalline material. The terms "FTIR" and "IR" denote the analytical method of infrared spectroscopy. The IR-spectra of the samples are recorded as film of a Nujol suspension consisting of approx. 5 mg of sample and approx. 5 mg of Nujol (mineral oil) between two sodium chloride plates (cross section 13 mm) in transmittance with a FTIR- spectrometer. The spectra were recorded in spectral range between 4000 cm"1 and 600 cm"1, resolution 2 cm"1, and 300 coadded scans on a Magna 860 (thermo/Nicolet) equipped with a DTGS detector. The term "Raman" denotes the analytical method of Raman spectroscopy. For recording Raman spectra, the samples were spread on a glass slide. Raman spectra were recorded in the range of 150-3800 cm"1 with an ARAMIS (HoribaJobinYvon) Raman microscope equipped with a Peltier cooled CCD detector, at excitation of 633 nm, a 1200 1/mm grating, a x50 objective and with 3 exposures of 3s, or 7s for weak Raman scatterers. The term "DSC" denotes the analytical method of Differential Scanning Calorimetry. DSC thermograms were recorded using a Mettler-Toledo™ differential scanning calorimeter DSC820, DSC821 or DSC1 with a FRS05 sensor. […]

[3] = salts from concentrated acids, second Details column (presumably Procedure B), listed as HCl salt
[4] = salt screen from concentrated aqueous acids, Formula V free base, Procedure A
[5] = salt screen from concentrated aqueous acids, Formula V free base, Procedure B
[6] = HBr salt obtained in the salt screen, Acetonitrile
[7] = HBr salt obtained in the salt screen, THF
[8] = salts from concentrated acids, second Details column (presumably Procedure B), listed as HBr salt
[9] = solvent 1-4-Dioxane (entry -13)
[10] = solvent Acetonitrile (entry -04)

SMILES: Cc1onc(-c2ccc(F)cc2)c1COc1ccc(C(=O)N2CCS(=O)(=O)CC2)cn1 [Form A ({drug4a}), (1,1-dioxo-1lambda6-thiomorpholin-4-yl)-{6-[3-(4-fluoro-phenyl)-5-methyl-isoxazol-4-ylmethoxy]-pyridin-3-yl]-methanone]
- thermodynamic stability of the solid form [2]: metastable polymorph
- solid form changes at elevated temperature ([2]; Temperature Controlled XRPD): do not show solid form changes

SMILES: Br [HBr]
- Observations after adda of THF [1, 4]: While suspension
- Observations after adda of THF [1, 5]: White suspension

SMILES: O=P(O)(O)O [Compound H3PO4]
- Maturation [1, 4]: Oil
- Observations after adda of THF [1, 4]: Solution
- Observations after adda of THF [1, 5]: Oil

SMILES: Cl [HCl]
- Observations after adda of THF [1, 4]: White suspension
- Observations after adda of THF [1, 5]: White suspension

Second part, led by results:

- Ion Chromatography ([1]; HCl salt from nitromethane): 0.8 eqs Cl
- XRPD (vacuum dried) ([1]; HCl salt from nitromethane): HCl Pattern 1
- Ion Chromatography ([1]; HCl salts from concentrated acids, first Details column (presumably Procedure A)): 1.6 eqs Cl
- Ion Chromatography ([1]; HCl salts from concentrated acids, second Details column (presumably Procedure B)): 1.7 eqs Cl
- XRPD (air dried) ([1]; salts from concentrated acids, first Details column (presumably Procedure A), listed as HCl salt): HCl Pattern 2
- XRPD (air dried) [1, 3]: HCl Pattern 2
SMILES: Nc1nc2cc(-c3ccc4ncc(C(=O)N5CCOCC5)n4c3)ccc2o1 [{drug5a}, (6-(2-aminobenzo[d]oxazol-5-yl)imidazo[1,2-a]pyridin-3-yl)(morpholino)methanone]
- XRPD (vacuum dried) [1, 3]: HCl Pattern 2; also recorded: Slight changes, more peaks

- Ion Chromatography ([1]; HBr salt from aqueous screen): 0.8 eqs Cl
- XRPD (vacuum dried) ([1]; HBr salt from aqueous screen): HBr Pattern 3
- Ion Chromatography [1, 6]: 1.1 eqs C 1
- XRPD (vacuum dried) [1, 6]: HBr Pattern 1, slight evidence of FB
- XRPD (vacuum dried) ([1]; HBr salt obtained in the salt screen, Nitromethane): HBr Pattern 1, slight evidence of FB
- Ion Chromatography [1, 7]: 0.8 eqs Cl
- XRPD (vacuum dried) [1, 7]: HBr Pattern 1
- Ion Chromatography ([1]; HBr salts from concentrated acids, first Details column (presumably Procedure A)): 1.7 eqs Br
- Ion Chromatography ([1]; HBr salts from concentrated acids, second Details column (presumably Procedure B)): 1.8 eqs Br
- XRPD (air dried) ([1]; salts from concentrated acids, first Details column (presumably Procedure A), listed as HBr salt): HBr Pattern 2
- XRPD (air dried) [1, 8]: HBr Pattern 4
SMILES: Nc1nc2cc(-c3ccc4ncc(C(=O)N5CCOCC5)n4c3)ccc2o1 [{drug5b}, (6-(2-aminobenzo[d]oxazol-5-yl)imidazo[1,2-a]pyridin-3-yl)(morpholino)methanone]
- XRPD (vacuum dried) [1, 8]: HBr Pattern 4; also recorded: Slight changes, more peaks

- XRPD post 4 days maturation [1, 9]: Amorphous
- XRPD post 1 day maturation ([1]; solvent Acetone (entry -05)): New peaks + free base
- XRPD post 4 days maturation ([1]; solvent Acetone (entry -05)): Free base
- XRPD post 1 day maturation [1, 10]: New peaks + free base
- XRPD post 4 days maturation [1, 10]: HCl Pattern 1
- XRPD post 1 day maturation ([1]; solvent DIPE (entry -10)): New peaks + free base
- XRPD post 4 days maturation ([1]; solvent DIPE (entry -10)): New peaks + free base
- XRPD post 4 days maturation ([1]; solvent EtOAc (entry -08)): New peaks + free base
- XRPD post 4 days maturation ([1]; solvent Ethanol (entry -02)): Amorphous
- XRPD post 4 days maturation ([1]; solvent IPA (entry -03)): Amorphous
- XRPD post 4 days maturation ([1]; solvent IPAc (entry -09)): New peaks + free base
- XRPD post 1 day maturation ([1]; solvent MEK (entry -06)): New peaks + free base
- XRPD post 4 days maturation ([1]; solvent MEK (entry -06)): HCl Pattern 1
- XRPD post 1 day maturation ([1]; solvent MIBK (entry -07)): New peaks + free base
- XRPD post 4 days maturation ([1]; solvent MIBK (entry -07)): New peaks + free base
- XRPD post 1 day maturation ([1]; solvent MeNO2 (entry -14)): HCl Pattern I
- XRPD post 4 days maturation ([1]; solvent Methanol (entry -01)): Loss of crystallinity
- XRPD post 1 day maturation ([1]; solvent TBME (entry -11)): New peaks + free base
- XRPD post 4 days maturation ([1]; solvent TBME (entry -11)): New peaks + free base
- XRPD post 4 days maturation ([1]; solvent THF (entry -12)): HCl Pattern 1
- XRPD post 1 day maturation ([1]; solvent Toluene (entry -15)): New peaks + free base
- XRPD post 4 days maturation ([1]; solvent Toluene (entry -15)): New peaks + free base
- XRPD post 1 day maturation ([1]; solvent tBuOH (entry -18)): New peaks + free base
- XRPD post 4 days maturation ([1]; solvent tBuOH (entry -18)): Free base
SMILES: Nc1nc2cc(-c3ccc4ncc(C(=O)N5CCOCC5)n4c3)ccc2o1 [compound of Formula V, (6-(2-aminobenzo[d]oxazol-5-yl)imidazo[1,2-a]pyridin-3-yl)(morpholino)methanone]
- XRPD post 1 day maturation [1, 9]: New peaks free base (loss of crystallinity)
- XRPD post 1 day maturation ([1]; solvent BuOAc (entry -16)): New peaks + free base (loss of crystallinity)
- XRPD post 4 days maturation ([1]; solvent BuOAc (entry -16)): New peaks + free base (loss of crystallinity)
- XRPD post 1 day maturation ([1]; solvent DCM (entry -17)): New peaks + free base (loss of crystallinity)
- XRPD post 4 days maturation ([1]; solvent DCM (entry -17)): New peaks + free base (loss of crystallinity)
- XRPD post 1 day maturation ([1]; solvent EtOAc (entry -08)): New peaks + free base (loss of crystallinity)
- XRPD post 1 day maturation ([1]; solvent Ethanol (entry -02)): New peaks + free base (loss of crystallinity)
- XRPD post 1 day maturation ([1]; solvent IPA (entry -03)): New peaks + free base (loss of crystallinity)
- XRPD post 1 day maturation ([1]; solvent IPAc (entry -09)): New peaks + free base (loss of crystallinity)
- XRPD post 1 day maturation ([1]; solvent Methanol (entry -01)): New peaks + free base (loss of crystallinity)
- XRPD post 1 day maturation ([1]; solvent THF (entry -12)): New peaks + free base (loss of crystallinity)
